# Patent US20260085053A1, “BENZOFURAN DERIVATIVES AS SIK INHIBITORS AND THE USE THEREOF” (BEONE MEDICINES I GMBH, priority 2023, published 2026)
# Key:
# [1] = target: T1, SIK1 kinase (aa1-303, Thermo Fisher) (Homo sapiens, UniProt P57059); assay: Biochemical activities determination for SIK1 protein (TR-FRET); conditions: 110 uM ATP, 0.5 μM STK1 substrate
# T1 construct: SIK1 kinase (aa1-303, Thermo Fisher); purchased Thermo Fisher
# Description: 1. Biochemical Activities Determination for SIK1 Protein
# (§1) Compounds were tested for inhibition of SIK1 kinase (aa1-303, Thermo Fisher) in assays based on the time-resolved fluorescence-resonance energy transfer (TR-FRET) methodology. The assays were carried out in 384-well low volume white plates in a reaction mixture containing SIK1 kinase, 110 uM ATP, 0.5 μM STK1 substrate and 0-10 μM compound in buffer containing 25 mM Tris, 0.01% Trition X-100, 0.5 mM EGTA, 5 mM MgCl2, 2.5 mM DTT, pH=7.5. The kinase was incubated with compounds for 60 minutes at room temperature and the reaction was initiated by the addition of ATP and STK1 substrate. After reaction at room temperature for 180 minutes, an equal volume of stop/detection solution was added according to the manufacture's instruction (CisBio Bioassays). The stop/detection solution contained STK Antibody-Cryptate and XL665-conjugated streptavidin (Cat: 62ST1PEC, Cisbio) in Detection Buffer (Cat: 62SDBRDF, Cisbio). Plates were sealed and incubated at room temperature for overnight, and the TR-FRET signals (ratio of fluorescence emission at 665 nm over emission at 620 nm with excitation at 337 nm wavelength) were recorded on a PHERAstar FS plate reader (BMG Labtech). Phosphorylation of STK1 substrate led to the binding of STK Antibody-Cryptate to the biotinylated SIK1 substrate, which places fluorescent donor (Eu^3+ crypate) in close proximity to the accepter (Streptavidin-XL665), thus resulting in a high degree of fluorescence resonance energy transfer from the donor fluorophore (at 620 nm) to the acceptor fluorophore (at 665 nm). […] The IC50 for each compound was derived from fitting the data to the four-parameter logistic equation by Dotmatics.
# [2] = target: T2, SIK2 kinase (full length, Thermo Fisher) (Homo sapiens, UniProt Q9H0K1); assay: Biochemical activities determination for SIK2 protein (TR-FRET); conditions: 80 uM ATP, 0.5 μM substrate
# T2 construct: SIK2 kinase (full length, Thermo Fisher); purchased Thermo Fisher
# T2 sequence (Q9H0K1 whole entry): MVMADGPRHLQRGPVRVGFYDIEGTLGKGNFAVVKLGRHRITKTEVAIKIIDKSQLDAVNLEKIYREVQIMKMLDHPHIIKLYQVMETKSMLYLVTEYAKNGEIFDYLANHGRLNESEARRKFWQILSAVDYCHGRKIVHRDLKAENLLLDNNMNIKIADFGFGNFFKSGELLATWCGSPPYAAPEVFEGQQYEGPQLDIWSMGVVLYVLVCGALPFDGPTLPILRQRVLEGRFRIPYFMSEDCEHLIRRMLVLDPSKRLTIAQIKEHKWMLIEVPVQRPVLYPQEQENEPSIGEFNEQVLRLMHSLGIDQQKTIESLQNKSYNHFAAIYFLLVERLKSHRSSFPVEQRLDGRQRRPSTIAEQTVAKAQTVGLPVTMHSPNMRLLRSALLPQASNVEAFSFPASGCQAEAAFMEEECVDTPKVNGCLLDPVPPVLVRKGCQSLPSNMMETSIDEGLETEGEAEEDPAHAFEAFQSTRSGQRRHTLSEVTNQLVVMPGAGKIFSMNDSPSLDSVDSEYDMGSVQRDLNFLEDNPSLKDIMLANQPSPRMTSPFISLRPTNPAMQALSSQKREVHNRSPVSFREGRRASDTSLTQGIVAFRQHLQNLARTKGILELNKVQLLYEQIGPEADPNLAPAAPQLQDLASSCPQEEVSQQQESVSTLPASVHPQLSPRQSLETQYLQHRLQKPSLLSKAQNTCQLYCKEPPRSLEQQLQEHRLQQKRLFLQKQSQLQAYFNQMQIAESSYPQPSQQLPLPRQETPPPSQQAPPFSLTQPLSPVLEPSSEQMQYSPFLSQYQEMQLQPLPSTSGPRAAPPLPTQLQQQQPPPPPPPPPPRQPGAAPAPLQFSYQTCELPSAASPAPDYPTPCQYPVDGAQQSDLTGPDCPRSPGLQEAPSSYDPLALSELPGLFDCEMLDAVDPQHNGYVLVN
# Description: 2. Biochemical Activities Determination for SIK2 Protein
# as §1, with “of SIK2” for “of SIK1”, “kinase (full length,” for “kinase (aa1-303,”, “containing SIK2” for “containing SIK1”, “kinase, 80” for “kinase, 110”, “μM […]” for “μM STK1”, “biotinylated STK1” for “biotinylated SIK1”
# [3] = target: T3, SIK3 kinase (aa59-365, Thermo Fisher) (Homo sapiens, UniProt Q9Y2K2); assay: Biochemical activities determination for SIK3 protein (TR-FRET); conditions: 125 uM ATP, 0.5 μM STK1 substrate
# T3 construct: SIK3 kinase (aa59-365, Thermo Fisher); purchased Thermo Fisher
# T3 sequence (Q9Y2K2 59-365): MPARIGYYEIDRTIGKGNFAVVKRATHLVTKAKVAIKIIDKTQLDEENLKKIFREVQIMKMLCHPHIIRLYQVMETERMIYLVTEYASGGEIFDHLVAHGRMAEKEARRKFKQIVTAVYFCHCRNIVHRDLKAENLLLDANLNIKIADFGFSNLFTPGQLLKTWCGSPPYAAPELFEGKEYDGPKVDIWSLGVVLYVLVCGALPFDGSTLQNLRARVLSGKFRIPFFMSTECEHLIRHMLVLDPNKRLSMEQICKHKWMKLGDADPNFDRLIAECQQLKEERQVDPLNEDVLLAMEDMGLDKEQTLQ
# Description: 3. Biochemical Activities Determination for SIK3 Protein
# Compounds were tested for inhibition of SIK3 kinase (aa59-365, Thermo Fisher) in assays based on the time-resolved fluorescence-resonance energy transfer (TR-FRET) methodology. The assays were carried out in 384-well low volume white plates in a reaction mixture containing SIK3 kinase, 125 uM ATP, 0.5 μM STK1 substrate and 0-10 μM compound in buffer containing 25 mM Tris, 0.01% Trition X-100, 0.5 mM EGTA, 5 mM MgCl2, 2.5 mM DTT, PH=7.5. The kinase was incubated with compound for 60 minutes at room temperature and the reaction was initiated by the addition of ATP and STK1 substrate. After reaction at room temperature for 180 minutes, an equal volume of stop/detection solution was added according to the manufacture's instruction (CisBio Bioassays). The stop/detection solution contained STK Antibody-Cryptate and XL665-conjugated streptavidin (Cat: 62ST1PEC, Cisbio) in Detection Buffer (Cat: 62SDBRDF, Cisbio). Plates were sealed and incubated at room temperature for overnight, and the TR-FRET signals (ratio of fluorescence emission at 665 nm over emission at 620 nm with excitation at 337 nm wavelength) were recorded on a PHERAstar FS plate reader (BMG Labtech). Phosphorylation of STK1 substrate led to the binding of STK Antibody-Cryptate to the biotinylated STK1 substrate, which places fluorescent donor (Eu^3+ crypate) in close proximity to the accepter (Streptavidin-XL665), thus resulting in a high degree of fluorescence resonance energy transfer from the donor fluorophore (at 620 nm) to the acceptor fluorophore (at 665 nm). […] The IC50 for each compound was derived from fitting the data to the four-parameter logistic equation by Dotmatics.
# T1 sequence (P57059 1-303): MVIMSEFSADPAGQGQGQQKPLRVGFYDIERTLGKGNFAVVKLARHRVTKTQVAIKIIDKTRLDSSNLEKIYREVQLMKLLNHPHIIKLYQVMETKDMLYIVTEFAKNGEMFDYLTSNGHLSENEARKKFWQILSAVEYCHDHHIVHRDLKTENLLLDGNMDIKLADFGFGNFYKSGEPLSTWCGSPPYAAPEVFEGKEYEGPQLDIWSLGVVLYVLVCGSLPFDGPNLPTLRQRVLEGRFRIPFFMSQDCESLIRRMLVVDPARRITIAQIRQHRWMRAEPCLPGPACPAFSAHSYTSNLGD
Compound,IC50 [1] [nM],IC50 [2] [nM],IC50 [3] [nM]
"O=C1c2c(cc(-c3coc4cc(-c5cnn(C6CCNCC6)c5)ccc34)cc2OC(F)F)CCN1CC(F)(F)F [Compound 43, 8-(difluoromethoxy)-6-(6-(1-(piperidin-4-yl)-1H-pyrazol-4-yl)benzofuran-3-yl)-2-(2,2,2-trifluoroethyl)-3,4-dihydroisoquinolin-1 (2H)-one]",676,8,57
"CN1CC(n2cc(-c3ccc4c(-c5cc6c(c(OC(F)F)c5)C(=O)N(CC(F)(F)F)CC6)coc4c3)cn2)C1 [Compound 44, 8-(difluoromethoxy)-6-(6-(1-(1-methylazetidin-3-yl)-1H-pyrazol-4-yl)benzofuran-3-yl)-2-(2,2,2-trifluoroethyl)-3,4-dihydroisoquinolin-1 (2H)-one]",538,5.2,45
"N#CCCN1CC(n2cc(-c3ccc4c(-c5cc6c(c(OC(F)F)c5)C(=O)N(CC(F)(F)F)CC6)coc4c3)cn2)C1 [Compound 45, 3-(3-(4-(3-(8-(difluoromethoxy)-1-oxo-2-(2,2,2-trifluoroethyl)-1,2,3,4-tetrahydroisoquinolin-6-yl)benzofuran-6-yl)-1H-pyrazol-1-yl)azetidin-1-yl) propanenitrile]",560,9.8,28
"CN1CCC(n2cc(-c3ccc4c(-c5cc6c(c(OC(F)F)c5)C(=O)N(CC(F)(F)F)CC6)coc4c3)cn2)CC1 [Compound 46, 8-(difluoromethoxy)-6-(6-(1-(1-methylpiperidin-4-yl)-1H-pyrazol-4-yl)benzofuran-3-yl)-2-(2,2,2-trifluoroethyl)-3,4-dihydroisoquinolin-1 (2H)-one]",430,7.8,36.1
"CN1CCC(n2cc(-c3ccc4c(-c5cc6c(c(OC(F)F)c5)C(=O)N(CC(F)(F)F)CC6)coc4c3)cn2)C1 (stereo not drawn) [Compound 47, 8-(difluoromethoxy)-6-(6-(1-(1-methylpyrrolidin-3-yl)-1H-pyrazol-4-yl)benzofuran-3-yl)-2-(2,2,2-trifluoroethyl)-3,4-dihydroisoquinolin-1 (2H)-one]",335,3,33
"O=C1c2c(cc(-c3coc4cc(-c5cnn(C6CCNC6)c5)ccc34)cc2OC(F)F)CCN1CC(F)(F)F (stereo not drawn) [Compound 48, 8-(difluoromethoxy)-6-(6-(1-(pyrrolidin-3-yl)-1H-pyrazol-4-yl)benzofuran-3-yl)-2-(2,2,2-trifluoroethyl)-3,4-dihydroisoquinolin-1 (2H)-one]",524,11,63
"COc1cc(-c2coc3cc(-c4cnn(C5CCOC5)c4)ccc23)cc2c1C(=O)N(CC(F)(F)F)CC2 (stereo not drawn) [Compound 49, 8-methoxy-6-(6-(1-(tetrahydrofuran-3-yl)-1H-pyrazol-4-yl)benzofuran-3-yl)-2-(2,2,2-trifluoroethyl)-3,4-dihydroisoquinolin-1 (2H)-one]",337,11,25
"COc1cc(-c2coc3cc(-c4cnn(C5CCOCC5)c4)ccc23)cc2c1C(=O)N(CC(F)(F)F)CC2 [Compound 50, 8-methoxy-6-(6-(1-(tetrahydro-2H-pyran-4-yl)-1H-pyrazol-4-yl)benzofuran-3-yl)-2-(2,2,2-trifluoroethyl)-3,4-dihydroisoquinolin-1 (2H)-one]",347,17,34
"COc1cc(-c2coc3cc(-c4cnn(C5CCN(C)C5)c4)ccc23)cc2c1C(=O)N(CC(F)(F)F)CC2 (stereo not drawn) [Compound 51, 8-methoxy-6-(6-(1-(1-methylpyrrolidin-3-yl)-1H-pyrazol-4-yl)benzofuran-3-yl)-2-(2,2,2-trifluoroethyl)-3,4-dihydroisoquinolin-1 (2H)-one]",317,3.7,26
"COc1cc(-c2coc3cc(-c4cnn(C5CCN(C)CC5)c4)ccc23)cc2c1C(=O)N(CC(F)(F)F)CC2 [Compound 52, 8-methoxy-6-(6-(1-(1-methylpiperidin-4-yl)-1H-pyrazol-4-yl)benzofuran-3-yl)-2-(2,2,2-trifluoroethyl)-3,4-dihydroisoquinolin-1 (2H)-one]",212,4.9,23
"COc1cc(-c2coc3cc(-c4cnn(C5CN(C)C5)c4)ccc23)cc2c1C(=O)N(CC(F)(F)F)CC2 [Compound 53, 8-methoxy-6-(6-(1-(1-methylazetidin-3-yl)-1H-pyrazol-4-yl)benzofuran-3-yl)-2-(2,2,2-trifluoroethyl)-3,4-dihydroisoquinolin-1 (2H)-one]",294,2.8,19
"COc1cc(-c2coc3cc(-c4cnn(C5CN(CCC#N)C5)c4)ccc23)cc2c1C(=O)N(CC(F)(F)F)CC2 [Compound 54, 3-(3-(4-(3-(8-methoxy-1-oxo-2-(2,2,2-trifluoroethyl)-1,2,3,4-tetrahydroisoquinolin-6-yl)benzofuran-6-yl)-1H-pyrazol-1-yl)azetidin-1-yl) propanenitrile]",326,6.9,19
"CN1CCC(n2cc(-c3ccc4c(-c5cc6c(c(OC(F)F)c5)C(=O)N(CC#N)CC6)coc4c3)cn2)CC1 [Compound 55, 2-(8-(difluoromethoxy)-6-(6-(1-(1-methylpiperidin-4-yl)-1H-pyrazol-4-yl)benzofuran-3-yl)-1-oxo-3,4-dihydroisoquinolin-2 (1H)-yl) acetonitrile]",301,3.9,18
"CN1CCC(n2cc(-c3ccc4c(-c5cc6c(c(OC(F)F)c5)C(=O)N(CC#N)CC6)coc4c3)cn2)C1 (stereo not drawn) [Compound 56, 2-(8-(difluoromethoxy)-6-(6-(1-(1-methylpyrrolidin-3-yl)-1H-pyrazol-4-yl)benzofuran-3-yl)-1-oxo-3,4-dihydroisoquinolin-2 (1H)-yl) acetonitrile]",315,2.6,15
"CN1CC(n2cc(-c3ccc4c(-c5cc6c(c(OC(F)F)c5)C(=O)N(CC#N)CC6)coc4c3)cn2)C1 [Compound 57, 2-(8-(difluoromethoxy)-6-(6-(1-(1-methylazetidin-3-yl)-1H-pyrazol-4-yl)benzofuran-3-yl)-1-oxo-3,4-dihydroisoquinolin-2 (1H)-yl) acetonitrile]",405,2.7,17
